Source: patent US9511058B2, “Methods for using carboxamide, sulfonamide and amine compounds” (Rigel Pharmaceuticals, Inc., priority 2010, dated 2016)

These molecules were tested against AMPK (assay: AMPK activation, enzyme-linked immunosorbent assay). Settings: compounds of Table 2 (Table 7).
Format: biochemical

| EC50 [µM] | Structure (SMILES) |
| --- | --- |
| 1 to 5 | O=C(NC1CCN(S(=O)(=O)c2cccc(C(F)(F)F)c2)CC1)c1ccc2[nH]c3c(c2c1)CN(Cc1ccc(C(F)(F)F)cc1)CC3 [2-30, 2-(4-(trifluoromethyl)benzyl)-N-(1-(3-(trifluoromethyl)phenylsulfonyl)piperidin-4-yl)-2,3,4,5-tetrahydro-1H-pyrido[4,3-b]indole-8-carboxamide] |
| 1 to 5 | O=C(NC1CCN(S(=O)(=O)c2ccc(Cl)cc2)CC1)c1ccc2[nH]c3c(c2c1)CN(Cc1ccc(C(F)(F)F)cc1)CC3 [2-32, N-(1-(4-chlorophenyl-sulfonyl)piperidin-4-yl)-2-(4-(trifluoro-methyl)benzyl)-2,3,4,5-tetrahydro-1H-pyrido [4,3-b]indole-8-carboxamide] |
| 1 to 5 | O=C(NC1CCN(C(=O)Nc2ccc(C(F)(F)F)cc2)CC1)c1ccc2[nH]c3c(c2c1)CN(Cc1ccc(C(F)(F)F)cc1)CC3 [2-33, 2-(4-(trifluoromethyl)benzyl)-N-(1-(4-(trifluoromethyl)phenylcarbamoyl)piperidin-4-yl)-2,3,4,5-tetrahydro-1H-pyrido[4,3-b]indole-8-carboxamide] |
| 10 to 50 | O=C(NC1CCN(S(=O)(=O)c2ccc(F)cc2)CC1)c1ccc2[nH]c3c(c2c1)CN(c1ccc(F)cc1)CC3 [2-35, 2-(4-fluorophenyl)-N-(1-(4-fluorophenylsulfonyl)piperidin-4-yl)-2,3,4,5-tetrahydro-1H-pyrido[4,3-b]indole-8-carboxamide] |
| > 100 | O=C(NC1CCN(Cc2cccnc2)CC1)c1ccc2[nH]c3c(c2c1)CN(c1ccc(F)cc1)CC3 [2-36, 2-(4-fluorophenyl)-N-(1-(pyridin-3-ylmethyl)piperidin-4-yl)-2,3,4,5-tetrahydro-1H-pyrido [4,3-b]indole-8-carboxamide] |
| 5 to 10 | O=C(NC1CCN(Cc2ccc(C(F)(F)F)cc2)CC1)c1ccc2[nH]c3c(c2c1)CN(c1ccc(F)cc1)CC3 [2-37, 2-(4-fluorophenyl)-N-(1-(4-(trifluoromethyl)benzyl)piperidin-4-yl)-2,3,4,5-tetrahydro-1H-pyrido[4,3-b]indole-8-carboxamide] |
| 10 to 50 | CC(C)(C)OC(=O)N1CCC(NC(=O)c2ccc3[nH]c4c(c3c2)CN(c2ccc(F)cc2)CC4)CC1 [2-38, tert-butyl 4-(2-(4-fluorophenyl)-2,3,4,5-tetrahydro-1H-pyrido [4,3-b]indole-8-carboxamido)piperidine-1-carboxylate] |
| 10 to 50 | O=C(NC1CCN(C(=O)c2ccc(F)cc2)CC1)c1ccc2[nH]c3c(c2c1)CN(c1ccc(F)cc1)CC3 [2-39, N-(1-(4-fluorobenzoyl)piperidin-4-yl)-2-(4-fluorophenyl)-2,3,4,5-tetrahydro-1H-pyrido[4,3-b]indole-8-carboxamide] |
| > 100 | O=C(NC1CCN(C(=O)c2cccnc2)CC1)c1ccc2[nH]c3c(c2c1)CN(c1ccc(F)cc1)CC3 [2-40, 2-(4-fluorophenyl)-N-(1-nicotinoylpiperidin-4-yl)-2,3,4,5-tetrahydro-1H-pyrido [4,3-b]indole-8-carboxamide] |
| 10 to 50 | O=C(NC1CCN(C(=O)c2ccc(C(F)(F)F)cc2)CC1)c1ccc2[nH]c3c(c2c1)CN(c1ccc(F)cc1)CC3 [2-41, 2-(4-fluorophenyl)-N-(1-(4-(trifluoromethyl)benzoyl)piperidin-4-yl)-2,3,4,5-tetrahydro-1H-pyrido[4,3-b]indole-8-carboxamide] |
| > 100 | CC(C)(C)OC(=O)N1CCC(NC(=O)c2ccc3[nH]c4c(c3c2)CN(Cc2ccc(C(N)=O)cc2)CC4)CC1 [2-43, tert-butyl 4-(2-(4-carbamoylbenzyl)-2,3,4,5-tetrahydro-1H-pyrido[4,3-b]indole-8-carboxamido) piperidine-1-carboxylate] |
| 10 to 50 | N#Cc1ccc(CN2CCC(NC(=O)c3ccc4[nH]c5c(c4c3)CN(Cc3ccc(C(N)=O)cc3)CC5)CC2)cc1 [2-44, 2-(4-carbamoylbenzyl)-N-(1-(4-cyanobenzyl)piperidin-4-yl)-2,3,4,5-tetrahydro-1H-pyrido [4,3-b]indole-8-carboxamide] |
| > 100 | NC(=O)c1ccc(CN2CCc3[nH]c4ccc(C(=O)NC5CCN(Cc6ccncc6)CC5)cc4c3C2)cc1 [2-45, 2-(4-carbamoylbenzyl)-N-(1-(pyridin-4-ylmethyl)piperidin-4-yl)-2,3,4,5-tetrahydro-1H-pyrido [4,3-b]indole-8-carboxamide] |
| > 100 | NC(=O)c1ccc(CN2CCc3[nH]c4ccc(C(=O)NC5CCN(C(=O)c6ccncc6)CC5)cc4c3C2)cc1 [2-46, 2-(4-carbamoylbenzyl)-N-(1-isonicotinoylpiperidin-4-yl)-2,3,4,5-tetrahydro-1H-pyrido [4,3-b]indole-8-carboxamide] |
| 10 to 50 | NC(=O)c1ccc(CN2CCc3[nH]c4ccc(C(=O)NC5CCN(Cc6ccc(C(F)(F)F)cc6)CC5)cc4c3C2)cc1 [2-47, 2-(4-carbamoylbenzyl)-N-(1-(4-(trifluoromethyl)benzyl)piperidin-4-yl)-2,3,4,5-tetrahydro-1H-pyrido[4,3-b]indole-8-carboxamide] |
| > 100 | NC(=O)c1ccc(CN2CCc3[nH]c4ccc(C(=O)NC5CCN(Cc6ccc(F)cc6)CC5)cc4c3C2)cc1 [2-48, 2-(4-carbamoylbenzyl)-N-(1-(4-fluorobenzyl)piperidin-4-yl)-2,3,4,5-tetrahydro-1H-pyrido [4,3-b]indole-8-carboxamide] |
| > 100 | NC(=O)c1ccc(CN2CCC(NC(=O)c3ccc4[nH]c5c(c4c3)CN(Cc3ccc(C(N)=O)cc3)CC5)CC2)cc1 [2-49, 2-(4-carbamoylbenzyl)-N-(1-(4-carbamoylbenzyl)piperidin-4-yl)-2,3,4,5-tetrahydro-1H-pyrido [4,3-b]indole-8-carboxamide] |
| < 0.5 | O=C(NC1CCN(Cc2ccncc2)CC1)c1ccc2[nH]c3c(c2c1)CN(Cc1ccc(C(F)(F)F)cc1)CC3 [2-50, N-(1-(pyridin-4-ylmethyl)piperidin-4-yl)-2-(4-(trifluoromethyl)benzyl)-2,3,4,5-tetrahydro-1H-pyrido[4,3-b]indole-8-carboxamide] |
| 0.5 to 1 | O=C(NC1CCN(C(=O)c2ccncc2)CC1)c1ccc2[nH]c3c(c2c1)CN(Cc1ccc(C(F)(F)F)cc1)CC3 [2-51, N-(1-isonicotinoyl-piperidin-4-yl)-2-(4-(trifluoromethyl)benzyl)-2,3,4,5-tetrahydro-1H-pyrido [4,3-b]indole-8-carboxamide] |
| 1 to 5 | NC(=O)c1ccc(CN2CCC(NC(=O)c3ccc4[nH]c5c(c4c3)CN(Cc3ccc(C(F)(F)F)cc3)CC5)CC2)cc1 [2-52, N-(1-(4-carbamoyl-benzyl)piperidin-4-yl)-2-(4-(trifluoromethyl)benzyl)-2,3,4,5-tetrahydro-1H-pyrido [4,3-b]indole-8-carboxamide] |
| 10 to 50 | Cn1cnc(CN2CCC(NC(=O)c3ccc4[nH]c5c(c4c3)CN(Cc3ccc(C(F)(F)F)cc3)CC5)CC2)c1 [2-53, N-(1-((1-methyl-1H-imidazol-4-yl)methyl)piperidin-4-yl)-2-(4-(trifluoromethyl)benzyl)-2,3,4,5-tetrahydro-1H-pyrido [4,3-b]indole-8-carboxamide] |
| < 0.5 | O=C(NC1CCN(Cc2cocn2)CC1)c1ccc2[nH]c3c(c2c1)CN(Cc1ccc(C(F)(F)F)cc1)CC3 [2-54, N-(1-(oxazol-4-ylmethyl)piperidin-4-yl)-2-(4-(trifluoromethyl)benzyl)-2,3,4,5-tetrahydro-1H-pyrido [4,3-b]indole-8-carboxamide] |
